Consider eight molecules from patent publication US20240316020A1, “Novel Pyridine Compounds” (ICAGEN, LLC, priority 2021, published 2024).

The target in one data set is human Kv7.2 (Homo sapiens (Human), UniProt O43526). The data set is described as follows: SyncroPatch 384 electrophysiology, CHO cells stably expressing human Kv7.2. Format: cell-based. As to the method:
(§1) The potency of Kv7 potentiators was determined using the SyncroPatch 384 (Nanion) high throughput electrophysiology platform.
(§2) CHO cells stably expressing either human Kv7.2, Kv7.4 or Kv7.5/7.3 under a constitutive CMV promoter were used for these studies. Cells were maintained in F12 Hams+1 mM L-glutamine (Hyclone) supplemented with 10% FBS (Sigma), 0.3×NEAA (Non-essential Gamino-acids) and 400 ug/ml G418 at 37° C. in 5% CO2. Cells were cultured in T-225 flasks (Nunc) for 2-3 days to reach 85-95% confluence prior to electrophysiological recording.
(§3) Earle's balanced salt solution (in mM): 135 NaCl, 5.4 KCl, 5 Glucose, 2 CaCl2, 1 MgCl2, 5 HEPES, pH 7.4. Seal enhancer solution (in mM): 90 NaCl, 3 KCl, 35 CaCl2, 10 MgCl2, 10 HEPES, pH 7.4. Extracellular recording solution (in mM): 71 NaCl, 70 NMDG, 13 KCl, 5 Glucose, 2 CaCl2, 1 MgCl2, 10 HEPES, pH 7.4. Intracellular recording solution (in mM): 130 KF, 20 KCl, 4 EGTA, 10 HEPES, 2 EDTA, 0.01 Escin, pH 7.2.
(§4) Cells were harvested for electrophysiological recording upon reaching appropriate confluence. Cells were first washed in DPBS (Hyclone, Cat #SH30028.03) and then 2 ml of Accutase (MP Biomedicals #1000449) was added at 28° C. until ˜90% of cells were suspended. F12 HAM's media+1 mM L-glutamine (Hyclone, SH30026.02) was then added to the flask to dilute the accutase. Cells were then triturated until a single cell suspension was achieved, a cell count was performed, and cells were centrifuged for 2 min. at 1,000 rpm. Media was then aspirated, and cells were resuspended in Earle's balanced salt solution to a concentration of 0.75×10^6 cells/ml and allowed to recover for 25 min at 10° C.
(§5) At the beginning of each assay, 20 μl of cell suspension was dispensed into each well of a multi-hole 384-well SyncroPatch chip by the onboard pipettor. Cell sealing was initiated, and seal enhancer solution was added to facilitate seal formation. Upon completion of sealing, cells were washed 3 times with extracellular recording solution and the assay voltage protocol was started. Human Kv7.2, Kv7.4 or Kv7.5/7.3 channels were evaluated using a voltage protocol in which cells were voltage-clamped at a holding potential of −60 mV. Potassium currents were continuously activated with a series of three voltage steps to −30 mV for 3 seconds, 40 mV for 1 second and −90 mV for 4 seconds with 12 seconds between successive voltage sweeps. Potassium currents were measured from the −90 mV repolarizing step. Baseline current was assessed for 3.5 minutes prior to the addition of 5.6 μM zinc pyrithione (1 μM for Kv7.4). Kv7.2, Kv7.4 or Kv7.5/7.3 current in the presence of zinc pyrithione was acquired over five minutes to allow channels to reach steady state activity prior to addition of test agents. Channel activity was monitored for three minutes preceding the addition of 30 μM ML-213 (3 minutes) to achieve maximum activation.
(§6) Data were collected on the SyncroPatch platform using PatchControl software (Nanion) and processed and analyzed using DataControl Software (Nanion). Percent activation was calculated from potassium current as follows: The average current for the 5 sweeps in the presence of zinc pyrithione immediately preceding test agent addition was taken as the ‘control’ data. Likewise, the average potassium current in the presence of test agents 5 sweeps immediately preceding addition of 30 μM ML-213 was determined for ‘drug’ data. The average potassium current 5 sweeps immediately prior to addition of 150 mM TEA+10 μM XE-991 was determined for ‘max activation’ data while average currents from 5 sweeps immediately following addition of TEA was determined for ‘max inhibition’ data. Percent activation for each of the 384-wells of a sealchip was calculated as ((‘drug’−‘max inhibition’)/(‘max activation’−‘max inhibition’))*100 with Pipeline Pilot (Accelrys). […]
A general note: The patch-clamp technique gives a direct electrical read-out from membranes.

Another data set has as its target human Kv7.5/7.3 (Homo sapiens (Human), UniProt O43525+Q9NR82). The data set is described as follows: SyncroPatch 384 electrophysiology, CHO cells stably expressing human Kv7.5/7.3. Format: cell-based. The note with it: Table A; for Kv7.5/7.3/Kv7.2 selectivity ratio: Kv7.5/7.3 EC50 over Kv7.2 EC50. The protocol:
as §1, §2, §3, §4, §5, §6

A short description of data set [1]: Human liver microsomal clearance. Format: in vitro ADME. The following applies: both sexes, liver microsomes, Table B, 0.5 μM compound, 0.25 mg/mL microsomes, NADPH, 37° C., read-out: Human liver microsomal intrinsic clearance CLint. The protocol:
Pooled mixed gender human liver microsomes were purchased from BioIVT at a concentration of 20 mg protein/mL and stored at −80° C. Incubations were conducted in V-bottomed 350 μL polypropylene 96-well plates. Compounds were diluted in phosphate buffer (final concentrations 0.5 μM compound, 0.5% DMSO) and mixed with diluted liver microsomes (fc 0.25 mg/mL). This mixture was aliquoted onto the assay plate (six wells per compound) and pre-warmed at 37° C. for ten minutes. Addition of NADPH (fc 0.5 mM, final incubation volume 100 μL) to each well started the time course. Reactions were stopped at 0.5, 3, 5, 10, 20 & 30 minutes by addition of 150 μL acetonitrile containing internal standard (IS; 0.125 μg/mL daidzein) and stopped samples were removed to a clean polypropylene plate. At the end of the assay the plate was refrigerated for an hour and then centrifuged at 3000 rpm for 10 minutes at 4° C. A sample of the supernatant was removed to a fresh plate and diluted 10-fold with 50:50 acetonitrile:water, then heat sealed. Analysis was by liquid chromatography coupled with tandem mass spectrometry (LC-MS/MS) for analyte and IS levels. Ratios of the analyte and IS peak areas were generated for results calculation (IS ratio). Dextromethorphan and verapamil were included in each experiment as controls for high clearance compounds. IS ratio data were converted into natural log values which were plotted against time and a linear regression fit applied. The slope of the line was returned and converted into the elimination constant (kel) by multiplying by −1. The elimination constant was used to calculate the in vitro CLint: in vitro CLint (μL/min/mg protein) is kel* (1000/protein conc in mg/mL).
Background: Liver microsomes are a subcellular fraction often used to study metabolism.

The target of a further data set is human Kv7.4 (Homo sapiens (Human), UniProt P56696). Description: SyncroPatch 384 electrophysiology, CHO cells stably expressing human Kv7.4. Format: cell-based. The note with it: Table C; for Kv7.4/Kv7.2 selectivity ratio: Kv7.4 EC50 over Kv7.2 EC50. As to the method:
as §1, §2, §3
Cells were harvested for electrophysiological recording upon reaching appropriate confluence. Cells were first washed in DPBS (Hyclone, Cat #SH30028.03) and then 2 ml of Accutase (MP Biomedicals #1000449) was added at 28° C. until ˜90% of cells were suspended. F12 HAM's media+1 mM L-glutamine (Hyclone, SH30026.02) was then added to the flask to dilute the accutase. […]
At the beginning of each assay, 20 μl of cell suspension was dispensed into each well of a multi-hole 384-well SyncroPatch chip by the onboard pipettor. […] Human Kv7.2, Kv7.4 or Kv7.5/7.3 channels were evaluated using a voltage protocol in which cells were voltage-clamped at a holding potential of −60 mV. […] Potassium currents were measured from the −90 mV repolarizing step. Baseline current was assessed for 3.5 minutes prior to the addition of 5.6 μM zinc pyrithione (1 μM for Kv7.4). […] Channel activity was monitored for three minutes preceding the addition of 30 μM ML-213 (3 minutes) to achieve maximum activation.
as §6, with “data.” for “data. Percent activation for each of the 384-wells of a sealchip was calculated as ((‘drug’−‘max inhibition’)/(‘max activation’−‘max inhibition’))*100 with Pipeline Pilot (Accelrys).”

Where [2] appears, read: Table 1, CHO cells, potassium current at -90 mV step, in presence of zinc pyrithione.

Each structure is given as a SMILES string. Where only a bound is given, the exact number is not on record here.

Chain of human Kv7.5/7.3 (Q9NR82 whole entry): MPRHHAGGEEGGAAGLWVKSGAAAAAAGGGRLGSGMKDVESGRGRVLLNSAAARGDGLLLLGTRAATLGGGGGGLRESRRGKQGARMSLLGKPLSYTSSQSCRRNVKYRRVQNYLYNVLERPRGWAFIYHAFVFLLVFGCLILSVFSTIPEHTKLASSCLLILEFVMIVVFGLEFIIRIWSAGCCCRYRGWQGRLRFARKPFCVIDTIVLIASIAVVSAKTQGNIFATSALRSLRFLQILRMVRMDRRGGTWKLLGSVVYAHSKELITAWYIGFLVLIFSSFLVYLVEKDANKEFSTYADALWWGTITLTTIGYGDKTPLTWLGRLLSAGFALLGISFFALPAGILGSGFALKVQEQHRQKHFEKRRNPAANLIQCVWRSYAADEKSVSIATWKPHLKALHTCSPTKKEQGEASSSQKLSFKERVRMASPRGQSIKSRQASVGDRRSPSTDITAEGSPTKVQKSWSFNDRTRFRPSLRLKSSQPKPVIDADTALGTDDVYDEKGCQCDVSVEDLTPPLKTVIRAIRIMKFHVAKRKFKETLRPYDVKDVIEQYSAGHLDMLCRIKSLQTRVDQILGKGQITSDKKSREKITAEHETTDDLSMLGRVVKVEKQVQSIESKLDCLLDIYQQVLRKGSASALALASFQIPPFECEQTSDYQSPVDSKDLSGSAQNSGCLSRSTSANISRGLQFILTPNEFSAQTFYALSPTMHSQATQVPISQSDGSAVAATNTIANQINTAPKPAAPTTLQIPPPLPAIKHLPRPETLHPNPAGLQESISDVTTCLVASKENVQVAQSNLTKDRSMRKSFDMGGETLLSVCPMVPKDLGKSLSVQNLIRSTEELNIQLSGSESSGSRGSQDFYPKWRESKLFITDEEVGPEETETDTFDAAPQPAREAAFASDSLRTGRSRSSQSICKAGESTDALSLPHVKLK
Chain of human Kv7.5/7.3 (O43525 whole entry): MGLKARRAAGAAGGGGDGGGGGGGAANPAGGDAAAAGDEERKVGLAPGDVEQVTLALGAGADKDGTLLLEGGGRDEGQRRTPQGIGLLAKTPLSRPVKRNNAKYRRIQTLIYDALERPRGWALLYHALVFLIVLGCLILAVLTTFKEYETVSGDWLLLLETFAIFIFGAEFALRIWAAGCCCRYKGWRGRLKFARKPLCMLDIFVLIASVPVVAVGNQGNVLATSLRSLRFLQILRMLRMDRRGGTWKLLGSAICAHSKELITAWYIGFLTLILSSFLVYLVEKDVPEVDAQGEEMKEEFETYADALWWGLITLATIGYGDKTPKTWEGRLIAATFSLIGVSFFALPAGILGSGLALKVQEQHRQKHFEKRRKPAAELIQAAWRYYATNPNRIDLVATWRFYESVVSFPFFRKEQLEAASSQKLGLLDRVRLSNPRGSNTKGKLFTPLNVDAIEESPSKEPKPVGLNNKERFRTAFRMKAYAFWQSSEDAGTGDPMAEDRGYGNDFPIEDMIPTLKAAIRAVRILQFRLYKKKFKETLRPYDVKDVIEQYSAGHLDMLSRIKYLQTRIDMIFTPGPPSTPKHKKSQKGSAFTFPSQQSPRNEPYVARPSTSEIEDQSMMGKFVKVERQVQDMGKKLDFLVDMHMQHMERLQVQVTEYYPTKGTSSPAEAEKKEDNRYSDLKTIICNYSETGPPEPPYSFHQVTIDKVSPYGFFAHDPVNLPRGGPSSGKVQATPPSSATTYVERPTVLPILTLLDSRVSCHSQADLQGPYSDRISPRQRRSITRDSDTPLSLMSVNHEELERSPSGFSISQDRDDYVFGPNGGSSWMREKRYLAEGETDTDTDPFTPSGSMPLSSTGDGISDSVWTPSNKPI
Chain of human Kv7.2 (O43526 whole entry): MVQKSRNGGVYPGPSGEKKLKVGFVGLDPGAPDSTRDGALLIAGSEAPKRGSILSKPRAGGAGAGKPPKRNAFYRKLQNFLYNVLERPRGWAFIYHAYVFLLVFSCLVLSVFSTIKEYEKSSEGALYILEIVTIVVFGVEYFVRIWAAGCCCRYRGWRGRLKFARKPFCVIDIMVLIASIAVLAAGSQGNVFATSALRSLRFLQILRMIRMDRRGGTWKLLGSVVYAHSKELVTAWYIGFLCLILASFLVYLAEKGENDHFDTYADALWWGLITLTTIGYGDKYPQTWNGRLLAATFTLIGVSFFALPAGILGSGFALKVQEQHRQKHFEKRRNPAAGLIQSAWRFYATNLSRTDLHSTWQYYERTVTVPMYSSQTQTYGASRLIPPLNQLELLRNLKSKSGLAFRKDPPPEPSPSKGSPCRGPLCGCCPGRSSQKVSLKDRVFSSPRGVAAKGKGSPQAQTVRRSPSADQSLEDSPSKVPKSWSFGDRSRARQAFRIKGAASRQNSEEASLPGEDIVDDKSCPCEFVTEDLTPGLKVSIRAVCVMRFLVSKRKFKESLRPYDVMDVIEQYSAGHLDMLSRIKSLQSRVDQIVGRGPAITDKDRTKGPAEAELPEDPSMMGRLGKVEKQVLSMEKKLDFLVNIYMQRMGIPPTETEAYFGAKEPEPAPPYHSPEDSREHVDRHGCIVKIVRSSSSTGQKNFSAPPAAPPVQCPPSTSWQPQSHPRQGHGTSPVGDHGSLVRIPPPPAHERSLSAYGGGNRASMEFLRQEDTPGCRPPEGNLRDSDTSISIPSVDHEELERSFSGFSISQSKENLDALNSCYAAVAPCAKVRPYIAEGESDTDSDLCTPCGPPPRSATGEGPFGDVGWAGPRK
Chain of human Kv7.4 (P56696 whole entry): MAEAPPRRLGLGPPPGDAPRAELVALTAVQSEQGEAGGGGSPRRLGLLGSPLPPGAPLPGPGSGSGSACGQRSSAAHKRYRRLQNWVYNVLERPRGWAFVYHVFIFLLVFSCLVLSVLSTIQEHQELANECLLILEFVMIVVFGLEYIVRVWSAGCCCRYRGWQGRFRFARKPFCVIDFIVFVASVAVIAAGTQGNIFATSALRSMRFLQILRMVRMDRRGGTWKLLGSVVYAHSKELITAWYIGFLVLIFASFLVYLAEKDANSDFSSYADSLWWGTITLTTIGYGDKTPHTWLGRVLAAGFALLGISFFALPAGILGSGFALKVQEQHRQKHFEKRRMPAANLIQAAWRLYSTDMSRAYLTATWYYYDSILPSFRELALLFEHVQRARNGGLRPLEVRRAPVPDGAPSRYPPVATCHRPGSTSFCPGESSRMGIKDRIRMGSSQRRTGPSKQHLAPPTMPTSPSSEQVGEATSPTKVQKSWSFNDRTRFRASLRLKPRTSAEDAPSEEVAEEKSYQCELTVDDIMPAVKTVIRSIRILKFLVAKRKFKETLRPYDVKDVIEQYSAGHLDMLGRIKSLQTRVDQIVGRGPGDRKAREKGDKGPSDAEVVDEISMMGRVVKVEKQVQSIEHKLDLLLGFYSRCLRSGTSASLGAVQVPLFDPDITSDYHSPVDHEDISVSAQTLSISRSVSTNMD

The term EC50 denotes the concentration at which the effect is half-maximal. The term microsomal CLint denotes the rate of metabolic loss divided by the concentration. With `O=C(NCc1ccnc(OC(F)F)c1)N[C@H]1CC2(CCC2)[C@@H]1O` (racemic) [Example 25, 1-[[2-(difluoromethoxy)pyridin-4-yl]methyl]-3-[rac-(2R,3R)-3-hydroxyspiro[3.3]heptan-2-yl]urea], the EC50 on human Kv7.2 (setting [2]) turned out to be 0.74 µM. Further, on human Kv7.5/7.3, the half-maximal effective concentration (EC50) was > 30 µM and the Kv7.5/7.3/Kv7.2 selectivity ratio was >41. In addition, the microsomal CLint at 0.5 μM in data set [1] came to 14.2 µL/min/mg.
As for `O=C(NCc1ccnc(OC(F)F)c1)NC1CCOC2(CCCC2)C1` (centres unmarked) [Example 14, 1-[[2-(difluoromethoxy)pyridin-4-yl]methyl]-3-(6-oxaspiro[4.5]decan-9-yl)urea], the values for the EC50 on human Kv7.2 (setting [2]), at human Kv7.2 (Table A) and at human Kv7.5/7.3 were 0.26 µM, 0.26 µM and > 30 µM, respectively. Further, the Kv7.5/7.3/Kv7.2 selectivity ratio on human Kv7.5/7.3 is listed as >116. Besides, the microsomal CLint at 0.5 μM in data set [1] is 20 µL/min/mg.
`O=C(NCc1ccnc(OC(F)F)c1)NC1CC2(CC(F)C2)C1` (centres unmarked) [Example 16, 1-[[2-(difluoromethoxy)pyridin-4-yl]methyl]-3-(2-fluorospiro[3.3]heptan-6-yl)urea]: the EC50 on human Kv7.2 (setting [2]) turned out to be 0.15 µM. The intrinsic clearance (microsomal CLint) at 0.5 μM in data set [1] turned out to be 10.7 µL/min/mg.
As to `O=C(NCc1ccnc(OC(F)F)c1)NC1CCOC2(CCC2)C1` (centres unmarked) [Example 17, 1-[[2-(difluoromethoxy)pyridin-4-yl]methyl]-3-(5-oxaspiro[3.5]nonan-8-yl)urea], on human Kv7.2 (setting [2]), the EC50 amounted to 0.34 µM. At human Kv7.5/7.3, the EC50 is > 30 µM and the Kv7.5/7.3/Kv7.2 selectivity ratio is recorded as >87. For the same molecule, in data set [1], the intrinsic clearance (microsomal CLint) at 0.5 μM was determined as 3.8 µL/min/mg.
In the case of `O=C(NCc1ccnc(OC(F)F)c1)NC1CCOC2(CCCC2(F)F)C1` (centres unmarked) [Example 21, 1-[[2-(difluoromethoxy)pyridin-4-yl]methyl]-3-(4,4-difluoro-6-oxaspiro[4.5]decan-9-yl)urea], the concentration for a half-maximal effect (EC50) on human Kv7.2 (setting [2]) is 0.21 µM; on human Kv7.2 (Table A), 0.21 µM; at human Kv7.2 (Table C), 0.21 µM; on human Kv7.4, > 30 µM; at human Kv7.5/7.3, > 30 µM. Also, the Kv7.4/Kv7.2 selectivity ratio on human Kv7.4 is given as >143. The Kv7.5/7.3/Kv7.2 selectivity ratio at human Kv7.5/7.3 is reported as >146. Further, the microsomal CLint at 0.5 μM in data set [1] stood at 20.4 µL/min/mg.
`O=C(NCc1ccnc(OC(F)F)c1)NC1COC2(CCC2)C1` (centres unmarked) [Example 22, 1-[[2-(difluoromethoxy)pyridin-4-yl]methyl]-3-(5-oxaspiro[3.4]octan-7-yl)urea]: the EC50 at human Kv7.2 (setting [2]) was 1.44 µM. Further, in data set [1], the microsomal CLint at 0.5 μM amounted to 10.6 µL/min/mg.
As to `O=C(NCc1ccnc(OC(F)F)c1)N[C@@H]1CCOC2(CCC2)C1` [Example 27, 1-[[2-(difluoromethoxy)pyridin-4-yl]methyl]-3-[(8R)-5-oxaspiro[3.5]nonan-8-yl]urea], the EC50 at human Kv7.2 (setting [2]) is 0.26 µM; at human Kv7.2 (Table A), 0.26 µM; on human Kv7.2 (Table C), 0.26 µM; at human Kv7.4 it was > 30 µM; at human Kv7.5/7.3, > 30 µM. Moreover, the Kv7.4/Kv7.2 selectivity ratio on human Kv7.4 is listed as >115. Also, the Kv7.5/7.3/Kv7.2 selectivity ratio at human Kv7.5/7.3 is >115. Also, the microsomal CLint at 0.5 μM in data set [1] is 20.5 µL/min/mg.
With `O=C(NCc1ccnc(OC(F)F)c1)NC1CCC2(CC1)CC2(F)F` (centres unmarked) [Example 31, 1-[[2-(difluoromethoxy)pyridin-4-yl]methyl]-3-(2,2-difluorospiro[2.5]octan-6-yl)urea], the EC50 on human Kv7.2 (setting [2]) stood at 0.14 µM. For the same molecule, in data set [1], the microsomal CLint at 0.5 μM was 18.8 µL/min/mg.
